From ChEMBL document CHEMBL1149054, “Isolation and structure of harzianum A: a new trichothecene from Trichoderma harzianum” (J Nat Prod, 1994)
The source made the active and inactive calls. No cut-off for these calls is given here.

How the values were obtained:
[1] = Cytotoxicity against BHK cells upto 1 ug/ml; format: cell-based, Mesocricetus auratus; conditions: hamster
Micrococcus luteus = experiment: Antimicrobial activity against Micrococcus luteus at 1 mg/ml; format: functional, organism-based
Staphylococcus aureus = experiment: Antimicrobial activity against Staphylococcus aureus at 1 mg/ml; format: functional, organism-based
Escherichia coli = experiment: Antimicrobial activity against Escherichia coli at 1 mg/ml; format: functional, organism-based

Compound: CC1=C[C@H]2O[C@@H]3C[C@@H](OC(=O)\C=C/C=C/C=C/C(=O)O)[C@](C)([C@@]2(C)CC1)[C@]31CO1 [HARZIANUM A]
- Activity [1]: Non-toxic
- Activity (Micrococcus luteus): inactive
- Activity (Staphylococcus aureus): inactive
- Activity (Escherichia coli): inactive
